Among the test systems are Malme-3M; PC-3; HOP-62; OVCAR-8; OVCAR-4; UACC-62; SK-MEL-5; U-251; HCT-15; LOX IMVI; OVCAR-3; HCC 2998; BT-549; HOP-92; OVCAR-5; SNB-75; NCI-H226; SK-MEL-28; RPMI-8226.
What all share (assay): NCI anticancer screen, dose series, 48 h

This note sets out measurements from ChEMBL document CHEMBL1201862, “PubChem BioAssay data set” (2004).

Each structure is given as a SMILES string.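 Five compound concentrations were applied to cells in 96-well plates for 48 hours; endpoints were derived by simple linear interpolation of the resulting dose-response curve. Here, GI50 denotes the concentration required for 50% inhibition of growth.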 Active and inactive are the calls of the source. Cut-off read from the data, not from the text of the source: active = GI50 up to about 1.1 µM and inactive = higher. A value given as a limit tells only on which side of the number the result lay.

With `Cc1ccc([N+](=O)[O-])c2c(NCCC[N+](C)(C)[O-])c3ccccc3nc12`, the GI50 in the assay with Malme-3M is 1.22 µM (inactive); with PC-3, 0.755 µM (active); with HOP-62, 2.56 µM (inactive); with OVCAR-8, 4.75 µM (inactive); with OVCAR-4, 2.02 µM (inactive); in the assay with UACC-62 it was 1.64 µM (inactive). The GI50 is 0.998 µM (active) in the assay with SK-MEL-5; 1.32 µM (inactive) in the assay with U-251; 4.99 µM in the assay with HCT-15; 2.04 µM (inactive) with LOX IMVI; 2.19 µM (inactive) in the assay on OVCAR-3; 0.841 µM (active) in the assay on HCC 2998. Besides, the GI50 in the assay with BT-549 was 1.5 µM (inactive); in the assay on HOP-92, 0.962 µM (active); in the assay on OVCAR-5 it was 3.41 µM (inactive); with SNB-75 it was 0.655 µM (active); in the assay with NCI-H226, 2.24 µM (inactive); in the assay with SK-MEL-28, 3.68 µM (inactive). Further, the GI50 in the assay on RPMI-8226 is 2.74 µM (inactive).
Regarding `OCc1ccn2c1[C@@H](O)CC2`, the GI50 in the assay on Malme-3M, with PC-3, in the assay with HOP-62, in the assay with OVCAR-8, with OVCAR-4 and in the assay on UACC-62 was > 100 µM (inactive) in each case. Moreover, the GI50 with SK-MEL-5 is > 100 µM (inactive); in the assay with U-251, > 100 µM (inactive); in the assay on HCT-15, above 100 µM; in the assay on LOX IMVI it was > 100 µM (inactive); in the assay on OVCAR-3 it was > 100 µM (inactive); with HCC 2998 it was > 100 µM (inactive). Also, the GI50 with BT-549, in the assay on HOP-92, in the assay with OVCAR-5, in the assay with SNB-75, with NCI-H226 and in the assay on SK-MEL-28 was > 100 µM (inactive) in each case. Moreover, the GI50 in the assay on RPMI-8226 was > 100 µM (inactive).
In the case of `CC1(C)C=C(S(=O)(=O)c2ccccc2)Oc2ccccc2O1`, the GI50 is 26.2 µM (inactive) with Malme-3M; 27.9 µM (inactive) with PC-3; > 100 µM (inactive) in the assay on HOP-62; 32.1 µM (inactive) in the assay with OVCAR-8; 37.4 µM (inactive) in the assay with OVCAR-4; 38.4 µM (inactive) with UACC-62. For the same molecule, the GI50 in the assay on SK-MEL-5 is 15.4 µM (inactive); with U-251 it was 45.4 µM (inactive); in the assay with HCT-15, 33.3 µM; with LOX IMVI, 16.3 µM (inactive); with OVCAR-3 it was 50.4 µM (inactive); in the assay with HCC 2998 it was 15.7 µM (inactive). For the same molecule, the GI50 in the assay with BT-549 was 42.7 µM (inactive); in the assay on HOP-92, 24.5 µM (inactive); with OVCAR-5, > 100 µM (inactive); in the assay on SNB-75 it was 16.7 µM (inactive); in the assay with NCI-H226 it was 46.6 µM (inactive); in the assay on SK-MEL-28, 41.7 µM (inactive). In addition, the GI50 with RPMI-8226 is 32.9 µM (inactive).
As for `CCC1(O)C=CC(=O)C=C1`, the GI50 in the assay with Malme-3M was 8.77 µM (inactive); in the assay with PC-3, 20.9 µM (inactive); with HOP-62, 27.7 µM (inactive); with OVCAR-8, 26.7 µM (inactive); with OVCAR-4 it was 23.1 µM (inactive); in the assay with UACC-62 it was 17.2 µM (inactive). The GI50 in the assay on SK-MEL-5 was 31.8 µM (inactive); with U-251, 15.3 µM (inactive); with HCT-15, 17.9 µM; with LOX IMVI, 11.6 µM (inactive); in the assay with OVCAR-3, 27.5 µM (inactive); in the assay with HCC 2998, 40.8 µM (inactive). Besides, the GI50 in the assay with BT-549 is 43.5 µM (inactive); with HOP-92 it was 31.8 µM (inactive); in the assay with OVCAR-5 it was 33.1 µM (inactive); with SNB-75 it was 33.3 µM (inactive); with NCI-H226, 25.5 µM (inactive); with SK-MEL-28 it was 23.3 µM (inactive). Moreover, the GI50 with RPMI-8226 is 32.4 µM (inactive).
As for `Clc1ccc(Cc2nc3ccccc3nc2-c2cccc(Br)c2)cc1`, the GI50 with Malme-3M was 4.45 µM (inactive); in the assay with PC-3, 1.92 µM (inactive); in the assay on HOP-62 it was 17.9 µM (inactive); with OVCAR-8 it was 2.92 µM (inactive); in the assay on OVCAR-4 it was 2.18 µM (inactive); in the assay with UACC-62, 1.91 µM (inactive). For the same molecule, the GI50 was 13.9 µM (inactive) in the assay on SK-MEL-5; 7.41 µM (inactive) in the assay on U-251; 1.41 µM with HCT-15; 1.97 µM (inactive) in the assay with LOX IMVI; 2.33 µM (inactive) in the assay on OVCAR-3; 1.62 µM (inactive) in the assay on HCC 2998. In addition, the GI50 was 3.5 µM (inactive) with BT-549; 0.243 µM (active) in the assay on HOP-92; 4.19 µM (inactive) in the assay on OVCAR-5; 20.4 µM (inactive) in the assay with SNB-75; 16.9 µM (inactive) in the assay with NCI-H226; 1.64 µM (inactive) in the assay with RPMI-8226.
As for `COc1cc(-c2cc(=O)c3c(OC)c(OC)c(OC)cc3o2)c(OC)c(OC)c1OC`, the GI50 with Malme-3M is > 75 µM (inactive); in the assay with PC-3 it was 23.6 µM (inactive); with HOP-62 it was > 75 µM (inactive); with OVCAR-8, > 75 µM (inactive); in the assay on OVCAR-4, 41.1 µM (inactive); in the assay on UACC-62, 42.5 µM (inactive). The GI50 in the assay with SK-MEL-5 was 53.7 µM (inactive); with U-251 it was > 75 µM (inactive); with HCT-15, above 75 µM; in the assay on LOX IMVI, 63.5 µM (inactive); in the assay with OVCAR-3, 51.2 µM (inactive); in the assay with HCC 2998, > 75 µM (inactive). The GI50 in the assay on BT-549 was 51.5 µM (inactive); with HOP-92 it was 14 µM (inactive); in the assay with OVCAR-5, > 75 µM (inactive); with SNB-75 it was > 75 µM (inactive); with NCI-H226 it was > 75 µM (inactive); with SK-MEL-28 it was > 75 µM (inactive). Moreover, the GI50 in the assay with RPMI-8226 was 25 µM (inactive).
Turning to `O=c1[nH]c2c(c(=O)[nH]1)SC(c1ccccc1)C2` (configuration not stated), the GI50 in the assay on Malme-3M, with PC-3, in the assay on HOP-62, with OVCAR-8, with OVCAR-4 and in the assay with SK-MEL-5 was > 100 µM (inactive) throughout. Moreover, the GI50 was > 100 µM (inactive) with U-251; above 100 µM with HCT-15; > 100 µM (inactive) with LOX IMVI; > 100 µM (inactive) with OVCAR-3; > 100 µM (inactive) in the assay on HCC 2998; > 100 µM (inactive) with BT-549. The GI50 with HOP-92 is > 100 µM (inactive); with OVCAR-5, > 100 µM (inactive); in the assay on SNB-75 it was 86.9 µM (inactive); with NCI-H226 it was > 100 µM (inactive); with SK-MEL-28, > 100 µM (inactive); in the assay on RPMI-8226, > 100 µM (inactive).
In the case of `CC(=O)Nc1ccc(Nc2cc(O)nc(O)n2)cc1`, the GI50 in the assay with Malme-3M, with PC-3, in the assay with HOP-62, with OVCAR-8, with OVCAR-4 and in the assay on SK-MEL-5 was > 100 µM (inactive) each time. Also, the GI50 in the assay with U-251 was > 100 µM (inactive); in the assay with HCT-15 it was above 100 µM; in the assay on LOX IMVI it was > 100 µM (inactive); in the assay with OVCAR-3, > 100 µM (inactive); in the assay with HCC 2998 it was > 100 µM (inactive); in the assay with BT-549, > 100 µM (inactive). Further, the GI50 in the assay with HOP-92, in the assay with OVCAR-5, in the assay with SNB-75, in the assay on NCI-H226, in the assay on SK-MEL-28 and in the assay with RPMI-8226 was > 100 µM (inactive) throughout.
In the case of `CN(C)c1cccc(F)c1C(=O)NC(=O)Nc1ccc(Cl)cc1`, the GI50 in the assay on Malme-3M is 1.76 µM (inactive); in the assay with PC-3 it was 2.83 µM (inactive); in the assay with HOP-62, 5.2 µM (inactive); in the assay on OVCAR-8, 5.19 µM (inactive); in the assay with OVCAR-4, > 43 µM (inactive); in the assay on UACC-62, 2.38 µM (inactive). Besides, the GI50 with SK-MEL-5 is 3.33 µM (inactive); in the assay with U-251, 3.69 µM (inactive); in the assay with HCT-15, 0.579 µM; in the assay with LOX IMVI, 3.01 µM (inactive); in the assay on OVCAR-3, 2.09 µM (inactive); in the assay on HCC 2998 it was 1.4 µM (inactive). Also, the GI50 in the assay with BT-549 was 8.95 µM (inactive); in the assay with HOP-92 it was 27.4 µM (inactive); in the assay on OVCAR-5, 8.09 µM (inactive); in the assay on SNB-75, 2.4 µM (inactive); in the assay with NCI-H226, 5.5 µM (inactive); in the assay with SK-MEL-28, 17.6 µM (inactive). In addition, the GI50 in the assay with RPMI-8226 is 1.81 µM (inactive).
Turning to `N#Cc1nc(-c2ccc(-c3nc(C#N)c(N)o3)cc2)oc1N`, the GI50 in the assay on Malme-3M, in the assay on PC-3, in the assay with HOP-62, with OVCAR-8, in the assay with OVCAR-4 and in the assay on UACC-62 was > 10 µM (inactive) each time. For the same molecule, the GI50 in the assay with SK-MEL-5 was > 10 µM (inactive); in the assay on HCT-15 it was above 10 µM; with LOX IMVI, > 10 µM (inactive); with HCC 2998, > 10 µM (inactive); with BT-549, > 10 µM (inactive); with HOP-92, > 10 µM (inactive). Besides, the GI50 in the assay on SNB-75, in the assay with NCI-H226, in the assay on SK-MEL-28 and in the assay with RPMI-8226 was > 10 µM (inactive) throughout.
For the molecule `COc1ccc([C@H]2C=C(c3cc(F)c(Cl)cc3Cl)N=c3s/c(=C\c4ccc(-c5ccc(Cl)cc5Cl)o4)c(=O)n32)cc1`, the GI50 was 99.1 µM (inactive) in the assay with Malme-3M; 99.3 µM (inactive) in the assay on PC-3; 18.8 µM (inactive) in the assay with HOP-62; 37.8 µM (inactive) in the assay on OVCAR-8; 37.3 µM (inactive) in the assay with OVCAR-4; 25.5 µM (inactive) in the assay on UACC-62. Also, the GI50 is 36.6 µM (inactive) in the assay with SK-MEL-5; 34.8 µM (inactive) with U-251; 33.8 µM in the assay on HCT-15; 38 µM (inactive) with LOX IMVI; 20.1 µM (inactive) in the assay with HCC 2998; 47.2 µM (inactive) in the assay with BT-549. For the same molecule, the GI50 is 31.6 µM (inactive) with HOP-92; 39.4 µM (inactive) with OVCAR-5; 38.4 µM (inactive) in the assay with SNB-75; 24.6 µM (inactive) in the assay on NCI-H226; > 100 µM (inactive) with SK-MEL-28; 32.5 µM (inactive) in the assay on RPMI-8226.
